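Step 1: Grow cells in 96-well plates. Step 2: Expose to compound for 48 hours at 5 concentrations. Step 3: Interpolate endpoints linearly; if unreached, use highest concentration. Abbreviation: GI50, concentration required for 50% inhibition of growth.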 Active and inactive are the calls of the source. No stated cut-off is given here; in the data, active = GI50 up to about 1.1 µM and inactive = higher.
Experiments:
Assay in all cases: growth of human tumour cells (NCI), 48 h
SF-268 = system: SF-268
UO-31 = system: UO-31
DU-145 = system: DU-145
MOLT-4 = system: MOLT-4
SK-MEL-2 = system: SK-MEL-2
SF-539 = system: SF-539
BT-549 = system: BT-549
EKVX = system: EKVX
CCRF-CEM = system: CCRF-CEM
OVCAR-4 = system: OVCAR-4
RXF 393 = system: RXF 393
SF-295 = system: SF-295
MCF7 = system: MCF7
MDA-MB-435 = system: MDA-MB-435
SK-MEL-5 = system: SK-MEL-5
TK-10 = system: TK-10
HOP-62 = system: HOP-62
LOX IMVI = system: LOX IMVI
786-0 = system: 786-0
HCC 2998 = system: HCC 2998
A498 = system: A498
MDA-MB-231 = system: MDA-MB-231
OVCAR-3 = system: OVCAR-3
ACHN = system: ACHN
HCT-116 = system: HCT-116
A549 = system: A549
SK-MEL-28 = system: SK-MEL-28
SW-620 = system: SW-620
UACC-257 = system: UACC-257
M14 = system: M14
COLO 205 = system: COLO 205
SNB-19 = system: SNB-19
K562 = system: K562
KM12 = system: KM12
U-251 = system: U-251
HOP-92 = system: HOP-92
SN12C = system: SN12C
NCI-H226 = system: NCI-H226
MDA-N = system: MDA-N
CAKI-1 = system: CAKI-1
SNB-75 = system: SNB-75
IGROV-1 = system: IGROV-1
T47D = system: T47D
HT-29 = system: HT-29
HCT-15 = system: HCT-15
RPMI-8226 = system: RPMI-8226
OVCAR-8 = system: OVCAR-8
Hs-578T = system: Hs-578T
NCI-H460 = system: NCI-H460
NCI-H23 = system: NCI-H23
PC-3 = system: PC-3
SK-OV-3 = system: SK-OV-3
OVCAR-5 = system: OVCAR-5
UACC-62 = system: UACC-62
NCI/ADR-RES = system: NCI/ADR-RES
HL-60 = system: HL-60
Malme-3M = system: Malme-3M
NCI-H522 = system: NCI-H522
SR = system: SR

Measured: GI50

Cc1ccc(S(=O)(=O)Oc2cc(N)c3c(n2)CCC3)cc1
inactive: SF-268 > 100 µM | UO-31 69.3 µM | DU-145 > 100 µM | MOLT-4 33.7 µM | SK-MEL-2 > 100 µM | SF-539 > 100 µM | BT-549 > 100 µM | EKVX 42.3 µM | CCRF-CEM 64.1 µM | OVCAR-4 34.4 µM | RXF 393 > 100 µM | SF-295 53.8 µM | MCF7 > 100 µM | MDA-MB-435 > 100 µM | SK-MEL-5 39 µM | TK-10 > 100 µM | HOP-62 > 100 µM | LOX IMVI > 100 µM | 786-0 > 100 µM | HCC 2998 > 100 µM | A498 69.2 µM | MDA-MB-231 > 100 µM | OVCAR-3 37.9 µM | ACHN > 100 µM | HCT-116 > 100 µM | A549 > 100 µM | SK-MEL-28 > 100 µM | SW-620 > 100 µM | UACC-257 46.2 µM | M14 > 100 µM | COLO 205 53.5 µM | SNB-19 > 100 µM | K562 67 µM | KM12 > 100 µM | U-251 > 100 µM | HOP-92 52.6 µM | SN12C > 100 µM | NCI-H226 36.8 µM | MDA-N > 100 µM | CAKI-1 > 100 µM | SNB-75 > 100 µM | IGROV-1 > 100 µM | T47D 56.4 µM | HT-29 48.3 µM | RPMI-8226 24.3 µM | OVCAR-8 > 100 µM | Hs-578T > 100 µM | NCI-H460 > 100 µM | NCI-H23 > 100 µM | PC-3 > 100 µM | SK-OV-3 > 100 µM | OVCAR-5 > 100 µM | UACC-62 97.5 µM | NCI/ADR-RES 79.8 µM | HL-60 43.2 µM
> 100 µM: HCT-15

COc1ccc(C(OCC2OC(n3ccc(NC(=O)c4ccccc4)nc3=O)CC2OP2(=S)SCCS2)(c2ccccc2)c2ccc(OC)cc2)cc1 (stereo unspecified)
33.5 µM: HCT-15
inactive: SF-268 21.2 µM | UO-31 > 100 µM | DU-145 32.9 µM | MOLT-4 37.5 µM | SK-MEL-2 43.6 µM | BT-549 25.9 µM | EKVX 34.5 µM | OVCAR-4 30.1 µM | RXF 393 33.2 µM | SF-295 30.7 µM | MCF7 37.1 µM | Malme-3M 25.4 µM | MDA-MB-435 30.1 µM | SK-MEL-5 22.4 µM | TK-10 > 100 µM | HOP-62 20.7 µM | LOX IMVI 14.9 µM | 786-0 24.4 µM | MDA-MB-231 31.1 µM | OVCAR-3 22.6 µM | ACHN 18.6 µM | HCT-116 32.9 µM | A549 56.2 µM | SK-MEL-28 30 µM | SW-620 18.4 µM | UACC-257 30.1 µM | M14 24.9 µM | COLO 205 > 10 µM | SNB-19 29.6 µM | K562 > 100 µM | U-251 28 µM | SN12C 21.1 µM | NCI-H226 34.4 µM | MDA-N > 10 µM | SNB-75 24.5 µM | IGROV-1 33.5 µM | T47D 36.3 µM | HT-29 24.7 µM | RPMI-8226 > 100 µM | NCI-H522 22.1 µM | OVCAR-8 27.2 µM | Hs-578T 24.1 µM | NCI-H460 33.6 µM | NCI-H23 43.2 µM | PC-3 17.8 µM | SK-OV-3 25.2 µM | OVCAR-5 36.8 µM | UACC-62 16.7 µM | SR 48.1 µM | NCI/ADR-RES > 10 µM

CCOc1nnnc2[nH]cnc12
> 100 µM: HCT-15
inactive: SF-268 > 100 µM | UO-31 > 100 µM | DU-145 > 100 µM | MOLT-4 > 100 µM | SK-MEL-2 > 100 µM | SF-539 > 100 µM | BT-549 > 100 µM | EKVX > 100 µM | OVCAR-4 > 100 µM | RXF 393 > 100 µM | SF-295 > 100 µM | MCF7 > 100 µM | Malme-3M > 100 µM | MDA-MB-435 > 100 µM | SK-MEL-5 > 100 µM | TK-10 > 100 µM | HOP-62 > 100 µM | LOX IMVI > 100 µM | 786-0 > 100 µM | HCC 2998 > 100 µM | A498 > 100 µM | MDA-MB-231 > 100 µM | OVCAR-3 > 100 µM | HCT-116 > 100 µM | A549 > 100 µM | SK-MEL-28 > 100 µM | SW-620 > 100 µM | UACC-257 > 100 µM | M14 > 100 µM | COLO 205 > 100 µM | KM12 > 100 µM | U-251 > 100 µM | SN12C > 100 µM | NCI-H226 > 100 µM | MDA-N > 100 µM | CAKI-1 > 100 µM | SNB-75 > 100 µM | IGROV-1 > 100 µM | T47D > 100 µM | HT-29 > 100 µM | RPMI-8226 > 100 µM | NCI-H522 > 100 µM | OVCAR-8 > 100 µM | Hs-578T > 100 µM | NCI-H460 > 100 µM | NCI-H23 > 100 µM | PC-3 > 100 µM | SK-OV-3 > 100 µM | OVCAR-5 > 100 µM | UACC-62 > 100 µM | NCI/ADR-RES > 100 µM | HL-60 > 100 µM

CSc1c(C#N)c(N)n2c1C(=O)N(c1ccccc1)C2=S
inactive: SF-268 88.1 µM | UO-31 > 100 µM | DU-145 > 100 µM | MOLT-4 > 100 µM | SF-539 92.7 µM | BT-549 > 100 µM | EKVX 8.2 µM | CCRF-CEM 68.2 µM | OVCAR-4 26.5 µM | RXF 393 > 100 µM | SF-295 38.6 µM | MCF7 > 100 µM | Malme-3M 90.4 µM | MDA-MB-435 > 100 µM | SK-MEL-5 > 100 µM | TK-10 > 100 µM | HOP-62 63 µM | LOX IMVI 72.1 µM | 786-0 32.6 µM | HCC 2998 > 100 µM | A498 23 µM | MDA-MB-231 20.3 µM | OVCAR-3 > 100 µM | ACHN 48.2 µM | HCT-116 38.3 µM | A549 > 100 µM | SK-MEL-28 > 100 µM | SW-620 85.1 µM | UACC-257 > 100 µM | M14 > 100 µM | COLO 205 30 µM | SNB-19 > 100 µM | K562 > 100 µM | KM12 51.5 µM | U-251 41.9 µM | HOP-92 31.3 µM | SN12C 74 µM | NCI-H226 > 100 µM | MDA-N > 100 µM | CAKI-1 77.1 µM | SNB-75 53.3 µM | IGROV-1 41.7 µM | T47D 52.6 µM | HT-29 90.2 µM | NCI-H522 21.2 µM | OVCAR-8 92.9 µM | Hs-578T 28 µM | NCI-H460 > 100 µM | NCI-H23 28.2 µM | PC-3 61.7 µM | SK-OV-3 91.6 µM | OVCAR-5 > 100 µM | UACC-62 > 100 µM | NCI/ADR-RES 80.5 µM | HL-60 > 100 µM
> 100 µM: HCT-15

Source: ChEMBL document CHEMBL1201862, “PubChem BioAssay data set” (2004)
